Ki and IC50 data for 29 compounds are collected here from patent US9802937B2, “Substituted pyrazolo{4,3-D}pyrimidines as kinase inhibitors” (ORIGENIS GMBH, priority 2011, dated 2017).

Experiment [1] addresses T1, SYK kinase (Homo sapiens, UniProt P43405).
T1 construct: purchased Invitrogen, Carlsbad
In words: SYK Assay (OMNIA KINASE ASSAY, SOX peptide fluorescence). It counts as biochemical. The note with it: apparent Ki calculated from the IC50 using the Cheng-Prusoff equation; 1 mM ATP, 30° C.; read-out: SYK Activities: Ki. In short, it runs like this:
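Continuous Omnia assay: SYK phosphorylation of SOX-labelled Tyr 7 peptide (10 µM) with 1 mM ATP and 0.2 mM DTT at 30 °C. Fluorescence (ex 360/em 485 nm) read every 30 s for 30 min. Reaction velocity versus inhibitor concentration gives IC50, converted to apparent Ki by Cheng-Prusoff.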

Experiment [2] concerns the target LRRK2 (Homo sapiens, UniProt Q5S007). The experiment in a line: LRRK2-LRRK2 G2019S-Assay (LanthaScreen Eu Kinase Binding Assay). Particulars: 5 nM LRRK2 or their mutants, 10 nM tracer 236, RT 1 h; read-out: LRRK2 Activities: IC50. The procedure, abridged: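 TR-FRET tracer-displacement binding assay with 5 nM LRRK2 or mutant, 2 nM Eu-anti-GST antibody and 10 nM tracer 236 in kinase buffer A. Incubated 1 h at RT; 665/615 nm emission ratio read (ex 340 nm). IC50 from variable-slope sigmoidal fit.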
(In general: Time-resolved FRET reads energy transfer from a long-lived donor to a nearby acceptor.)

Chain of LRRK2 (Q5S007 970-2527 limits assumed): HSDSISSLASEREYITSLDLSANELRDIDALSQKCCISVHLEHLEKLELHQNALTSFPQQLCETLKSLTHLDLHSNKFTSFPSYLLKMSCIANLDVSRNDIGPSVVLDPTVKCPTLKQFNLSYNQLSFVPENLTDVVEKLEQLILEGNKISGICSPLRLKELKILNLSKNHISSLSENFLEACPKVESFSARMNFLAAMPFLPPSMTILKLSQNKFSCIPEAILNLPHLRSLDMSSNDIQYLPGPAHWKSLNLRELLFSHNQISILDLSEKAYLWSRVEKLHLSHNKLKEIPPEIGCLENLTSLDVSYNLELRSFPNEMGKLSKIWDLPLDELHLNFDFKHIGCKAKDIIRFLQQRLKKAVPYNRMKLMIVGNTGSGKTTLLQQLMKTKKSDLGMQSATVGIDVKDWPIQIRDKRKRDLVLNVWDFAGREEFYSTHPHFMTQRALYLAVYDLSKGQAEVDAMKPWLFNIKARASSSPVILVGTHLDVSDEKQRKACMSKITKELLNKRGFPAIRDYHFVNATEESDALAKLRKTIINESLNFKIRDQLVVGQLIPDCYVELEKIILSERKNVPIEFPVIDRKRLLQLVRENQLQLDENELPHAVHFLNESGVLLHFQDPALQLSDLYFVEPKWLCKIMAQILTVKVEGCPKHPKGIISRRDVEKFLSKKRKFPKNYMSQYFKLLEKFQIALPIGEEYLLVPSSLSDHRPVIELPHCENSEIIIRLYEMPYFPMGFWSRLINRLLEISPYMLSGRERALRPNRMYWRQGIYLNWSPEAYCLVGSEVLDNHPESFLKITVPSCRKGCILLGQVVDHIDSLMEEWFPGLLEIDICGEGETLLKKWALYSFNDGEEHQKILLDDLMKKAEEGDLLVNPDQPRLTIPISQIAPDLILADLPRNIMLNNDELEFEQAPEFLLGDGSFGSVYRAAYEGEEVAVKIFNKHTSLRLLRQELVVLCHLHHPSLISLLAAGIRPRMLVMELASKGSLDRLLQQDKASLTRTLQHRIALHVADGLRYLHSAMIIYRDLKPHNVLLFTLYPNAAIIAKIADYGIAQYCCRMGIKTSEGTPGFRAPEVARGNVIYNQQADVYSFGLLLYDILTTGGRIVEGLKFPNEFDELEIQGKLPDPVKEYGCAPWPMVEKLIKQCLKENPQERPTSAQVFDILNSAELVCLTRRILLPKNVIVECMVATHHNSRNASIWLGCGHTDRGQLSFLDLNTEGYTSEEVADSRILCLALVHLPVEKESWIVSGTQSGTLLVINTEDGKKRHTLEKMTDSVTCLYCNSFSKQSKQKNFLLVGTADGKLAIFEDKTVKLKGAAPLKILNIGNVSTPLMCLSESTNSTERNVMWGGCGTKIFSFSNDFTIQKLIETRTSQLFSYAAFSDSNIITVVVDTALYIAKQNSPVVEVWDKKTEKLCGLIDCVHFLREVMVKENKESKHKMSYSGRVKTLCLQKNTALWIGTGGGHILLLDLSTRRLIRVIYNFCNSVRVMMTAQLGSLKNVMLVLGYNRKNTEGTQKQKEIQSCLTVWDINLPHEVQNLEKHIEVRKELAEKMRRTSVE

Usually IC50 stands for the concentration that inhibits the measured activity by half. On to `COc1ccc(Nc2nc(-c3ncco3)nc3cn[nH]c23)cc1OC` [Example #205, N-(3,4-dimethoxyphenyl)-5-(oxazol-2-yl)-1H-pyrazolo[4,3-d]pyrimidin-7-amine], for which, in experiment [1], the Ki is below 10 nM. Moreover, in experiment [2], the IC50 fell in the range of 100 to 1000 nM.
For `O=C1CCc2ccc(Nc3nc(-c4cscn4)nc4cn[nH]c34)cc2N1` [Example #206, 7-((5-(thiazol-4-yl)-1H-pyrazolo[4,3-d]pyrimidin-7-yl)amino)-3,4-dihydroquinolin-2(1H)-one], in that order: below 10 nM and 10 to 100 nM.
The like results for `O=C1CCc2ccc(Nc3nc(-c4cocn4)nc4cn[nH]c34)cc2N1` [Example #207, 7-((5-(oxazol-4-yl)-1H-pyrazolo[4,3-d]pyrimidin-7-yl)amino)-3,4-dihydroquinolin-2(1H)-one] were, in that order, below 10 nM and 100 to 1000 nM.
With `O=C1CCc2ccc(Nc3nc(-c4ncco4)nc4cn[nH]c34)cc2N1` [Example #208, 7-((5-(oxazol-2-yl)-1H-pyrazolo[4,3-d]pyrimidin-7-yl)amino)-3,4-dihydroquinolin-2(1H)-one], in experiment [1], the Ki was below 10 nM. Moreover, the IC50 in experiment [2] lay in the range of 100 to 1000 nM.
For `CN1CCC(c2ccc(Nc3nc(-c4cccs4)nc4cn[nH]c34)cc2)CC1` [Example #209, N-(4-(1-methylpiperidin-4-yl)phenyl)-5-(thiophen-2-yl)-1H-pyrazolo[4,3-d]pyrimidin-7-amine], in that order: 10 to 100 nM and 100 to 1000 nM.
Take `O=C1CCCc2ccc(Nc3nc(-c4cccc(C(=O)O)c4)nc4cn[nH]c34)cc2N1` [Example #218, 3-(7-((2-oxo-2,3,4,5-tetrahydro-1H-benzo[b]azepin-8-yl)amino)-1H-pyrazolo[4,3-d]pyrimidin-5-yl)benzoic acid]: in experiment [1], the Ki was 10 to 100 nM. For the same compound, the half-inhibitory concentration (IC50) in experiment [2] is 100 to 1000 nM.
Turning to `COc1ccc(Nc2nc(-c3ccccc3F)nc3cn[nH]c23)cc1OC` [Example #232, N-(3,4-dimethoxyphenyl)-5-(2-fluorophenyl)-1H-pyrazolo[4,3-d]pyrimidin-7-amine], in experiment [1], the Ki was below 10 nM. Further, the half-inhibitory concentration (IC50) in experiment [2] lay in the range of 100 to 1000 nM.
For `Fc1ccccc1-c1nc(Nc2ccc(N3CCOCC3)cc2)c2[nH]ncc2n1` [Example #233, 5-(2-fluorophenyl)-N-(4-morpholinophenyl)-1H-pyrazolo[4,3-d]pyrimidin-7-amine], in that order: below 10 nM and 100 to 1000 nM.
For `COc1ccc(Nc2nc(-c3cccc(F)c3)nc3cn[nH]c23)cc1OC` [Example #234, N-(3,4-dimethoxyphenyl)-5-(3-fluorophenyl)-1H-pyrazolo[4,3-d]pyrimidin-7-amine], in that order: below 10 nM and 100 to 1000 nM.
Turning to `Fc1cccc(-c2nc(Nc3ccc(N4CCOCC4)cc3)c3[nH]ncc3n2)c1` [Example #235, 5-(3-fluorophenyl)-N-(4-morpholinophenyl)-1H-pyrazolo[4,3-d]pyrimidin-7-amine], the Ki in experiment [1] is below 10 nM. Further, the IC50 in experiment [2] is 10 to 100 nM.
As for `CC(=O)N1CCN(c2ccc(Nc3nc(-c4cccc(S(N)(=O)=O)c4)nc4cn[nH]c34)cc2)CC1` [Example #237, 3-(7-((4-(4-acetylpiperazin-1-yl)phenyl)amino)-1H-pyrazolo[4,3-d]pyrimidin-5-yl)benzenesulfonamide], the Ki in experiment [1] is below 10 nM. The IC50 in experiment [2] lay in the range of 100 to 1000 nM.
With `NS(=O)(=O)c1cccc(-c2nc(Nc3ccc(N4CCOCC4)cc3)c3[nH]ncc3n2)c1` [Example #239, 3-(7-((4-morpholinophenyl)amino)-1H-pyrazolo[4,3-d]pyrimidin-5-yl)benzenesulfonamide], the Ki in experiment [1] is below 10 nM. In experiment [2], the IC50 was 100 to 1000 nM.
For the compound `CS(=O)(=O)c1cccc(-c2nc(Nc3ccc(N4CCOCC4)cc3)c3[nH]ncc3n2)c1` [Example #251, 5-(3-(methylsulfonyl)phenyl)-N-(4-morpholinophenyl)-1H-pyrazolo[4,3-d]pyrimidin-7-amine], the Ki in experiment [1] is below 10 nM. In addition, the IC50 in experiment [2] lay in the range of 100 to 1000 nM.
Take `O=C1CCc2ccc(Nc3nc(-c4cnc5cc[nH]c5c4)nc4cn[nH]c34)cc2N1` [Example #257, 7-((5-(1H-pyrrolo[3,2-b]pyridin-6-yl)-1H-pyrazolo[4,3-d]pyrimidin-7-yl)amino)-3,4-dihydroquinolin-2(1H)-one]: in experiment [1], the Ki is below 10 nM. Moreover, the IC50 in experiment [2] lay in the range of 100 to 1000 nM.
For `CNS(=O)(=O)c1cccc(Nc2nc(-c3cccs3)nc3cn[nH]c23)c1` [Example #265, N-methyl-3-((5-(thiophen-2-yl)-1H-pyrazolo[4,3-d]pyrimidin-7-yl)amino)benzenesulfonamide], in that order: 100 to 1000 nM and 100 to 1000 nM.
The like results for `O=C1CCc2ccc(Nc3nc(-c4ccc5cn[nH]c5c4)nc4cn[nH]c34)cc2N1` [Example #269, 7-((5-(1H-indazol-6-yl)-1H-pyrazolo[4,3-d]pyrimidin-7-yl)amino)-3,4-dihydroquinolin-2(1H)-one] were, in that order, below 10 nM and below 10 nM.
The like results for `Fc1ccc(-c2nc(Nc3ccc(N4CCOCC4)cc3)c3[nH]ncc3n2)cc1` [Example #271, 5-(4-fluorophenyl)-N-(4-morpholinophenyl)-1H-pyrazolo[4,3-d]pyrimidin-7-amine] were, in that order, 10 to 100 nM and 100 to 1000 nM.
Turning to `CN1CCN(C2CCN(c3ccc(Nc4nc(-c5ccccc5F)nc5cn[nH]c45)cc3)CC2)CC1` [Example #278, 5-(2-fluorophenyl)-N-(4-(4-(4-methylpiperazin-1-yl)piperidin-1-yl)phenyl)-1H-pyrazolo[4,3-d]pyrimidin-7-amine], the Ki in experiment [1] was below 10 nM. For the same compound, the half-inhibitory concentration (IC50) in experiment [2] lay within 100 to 1000 nM.
The like results for `COc1ccc(Nc2nc(-c3c(F)cccc3F)nc3cn[nH]c23)cc1OC` [Example #281, 5-(2,6-difluorophenyl)-N-(3,4-dimethoxyphenyl)-1H-pyrazolo[4,3-d]pyrimidin-7-amine] were, in that order, below 10 nM and 100 to 1000 nM.
Consider `Fc1cccc(F)c1-c1nc(Nc2ccc(N3CCOCC3)cc2)c2[nH]ncc2n1` [Example #282, 5-(2,6-difluorophenyl)-N-(4-morpholinophenyl)-1H-pyrazolo[4,3-d]pyrimidin-7-amine], for which, in experiment [1], the Ki was 10 to 100 nM. In experiment [2], the IC50 is 100 to 1000 nM.
With `Fc1cccc(F)c1-c1nc(Nc2ccc(N3CCN(C4CC4)CC3)cc2)c2[nH]ncc2n1` [Example #283, N-(4-(4-cyclopropylpiperazin-1-yl)phenyl)-5-(2,6-difluorophenyl)-1H-pyrazolo[4,3-d]pyrimidin-7-amine], the Ki in experiment [1] is 10 to 100 nM. In addition, the half-inhibitory concentration (IC50) in experiment [2] lay in the range of 100 to 1000 nM.
With `Fc1cc(Nc2nc(-c3cccs3)nc3cn[nH]c23)ccc1N1CCOCC1` [Example #296, N-(3-fluoro-4-morpholinophenyl)-5-(thiophen-2-yl)-1H-pyrazolo[4,3-d]pyrimidin-7-amine], the Ki in experiment [1] was below 10 nM. The IC50 in experiment [2] lay within 100 to 1000 nM.
Regarding `CN1CCN(C2CCN(C(=O)c3ccc(Nc4nc(-c5cccs5)nc5cn[nH]c45)cc3)CC2)CC1` [Example #297, (4-(4-methylpiperazin-1-yl)piperidin-1-yl)(4-((5-(thiophen-2-yl)-1H-pyrazolo[4,3-d]pyrimidin-7-yl)amino)phenyl)methanone], the Ki in experiment [1] is below 10 nM. Besides, in experiment [2], the 50% inhibitory concentration (IC50) was in the range of 10 to 100 nM.
Turning to `COc1ccc(Nc2nc(-c3ccc4c(c3)NCCO4)nc3cn[nH]c23)cc1OC` [Example #300, 5-(3,4-dihydro-2H-benzo[b][1,4]oxazin-6-yl)-N-(3,4-dimethoxyphenyl)-1H-pyrazolo[4,3-d]pyrimidin-7-amine], the Ki in experiment [1] is below 10 nM. Besides, the concentration for half-maximal inhibition (IC50) in experiment [2] was in the range of 100 to 1000 nM.
Turning to `c1cc(N2CCOCC2)ccc1Nc1nc(-c2ccc3c(c2)NCCO3)nc2cn[nH]c12` [Example #301, 5-(3,4-dihydro-2H-benzo[b][1,4]oxazin-6-yl)-N-(4-morpholinophenyl)-1H-pyrazolo[4,3-d]pyrimidin-7-amine], in experiment [1], the Ki was 10 to 100 nM. Besides, in experiment [2], the IC50 fell in the range of 100 to 1000 nM.
For `Cc1nc2cc(Nc3nc(-c4ccc5c(c4)NCCO5)nc4cn[nH]c34)ccc2[nH]1` [Example #302, 5-(3,4-dihydro-2H-benzo[b][1,4]oxazin-6-yl)-N-(2-methyl-1H-benzo[d]imidazol-5-yl)-1H-pyrazolo[4,3-d]pyrimidin-7-amine], in that order: below 10 nM and 100 to 1000 nM.
For `CN1Cc2ccc(Nc3nc(-c4cccs4)nc4cn[nH]c34)cc2C1` [Example #303, N-(2-methylisoindolin-5-yl)-5-(thiophen-2-yl)-1H-pyrazolo[4,3-d]pyrimidin-7-amine], the Ki in experiment [1] is below 10 nM. The IC50 in experiment [2] lay in the range of 100 to 1000 nM.
In the case of `c1csc(-c2nc(Nc3ccc4c(c3)COC4)c3[nH]ncc3n2)c1` [Example #304, N-(1,3-dihydroisobenzofuran-5-yl)-5-(thiophen-2-yl)-1H-pyrazolo[4,3-d]pyrimidin-7-amine], in experiment [1], the Ki is below 10 nM. For the same compound, in experiment [2], the IC50 was 100 to 1000 nM.
For `CN(C)Cc1ccc(Nc2nc(-c3ccccc3F)nc3cn[nH]c23)cc1` [Example #311, N-(4-((dimethylamino)methyl)phenyl)-5-(2-fluorophenyl)-1H-pyrazolo[4,3-d]pyrimidin-7-amine], in that order: 10 to 100 nM and 100 to 1000 nM.
